# Where a name gives a salt, the structure may show the parent alone.
# How the values were obtained:
# [1] = test system: KCMC10 cells derived from a patient with Leigh syndrome; experiment: Oxidative stress test (BSO-induced cell death), KCMC10 cells; format: cell-based, human; settings: BSO plus agent 1 μM, 48 hours after addition
# Excerpt: (§1) In mitochondrial dysfunction, for example, ATP production is damaged and/or oxidative stress increases, with the result that apoptosis of cells is induced. Because of this, individuals having mitochondrial dysfunction are reported to be less tolerant to oxidative stress, compared to normal individuals (Shrader W D et al., Bioorg Med Chem Lett., Jun. 15, 2011, Vol. 21 (12), p. 3693-8, doi: 10.1016/j.bmc1.2011.04.085. electronically published on Apr. 24, 2011, PubMed PMID: 21600768). Then, oxidative stress was given to the skin fibroblasts of individual patients mentioned above to induce apoptosis. Under the conditions, compounds of the drug library were each administered to the cells. In this manner, a primary screening was carried out. Then, candidate pharmaceutical agents selected by the primary screening were subjected to a secondary screening, which is an in-vitro evaluation test such as a mitochondrial function evaluation test and a microarray expression analysis.
# (§2) The oxidative stress test is a known pharmaceutical agent screening method, which was carried out under the conditions where cell death was induced by addition of L-buthionine-(S,R)-sulfoximine (BSO) (Arce P M et al., ACS Med Chem Lett., May 31, 2011, Vol. 2 (8), p. 608-13, doi: 10.1021/m1200095w. eCollection, Aug. 11, 2011, PubMed PMID: 24900356; PubMed Central PMCID: PMC4018135). BSO inhibits synthesis of glutathione serving as an antioxidant in the cells to deplete glutathione, raising the level of active oxygen within the cells. The procedure of the test is as follows. The cells to be used in the test were seeded in a 96-well plate for cell culture so as to satisfy a concentration of 5,000 cells/well and 80 μL medium/well and cultured in a CO2 incubator (37° C., 5% CO2) for 24 hours. Twenty four hours after the culture, BSO and each of the pharmaceutical agents (final concentration of 1 μM) of the drug library were together added to the cells within the wells. Forty eight hours after the addition, survival rates were determined. The survival rates were determined by measuring absorbance of formazan generated by use of cell count reagent SF (Nacalai Tesque, Inc.). As a positive control compound, idebenone (Non Patent Literature 1) approved as a therapeutic agent for Leber's hereditary optic neuritis in Europe, was used in the same concentration.
# (§3) An oxidative stress test was carried out by using three fibroblast cell lines derived from patients with a mitochondrial disease and provided in 1-2. The pharmaceutical agent showing the survival rate equal to or more than that of idebenone, a positive control compound, was determined to be effective. The results of oxidative stress test of pharmaceutical agents of the drug library to KCMC10 cells are shown in FIG. 2; the results of oxidative stress test of pharmaceutical agents of the drug library to ME54 cells are shown in FIG. 3; and the results of oxidative stress test of pharmaceutical agents of the drug library to ME110 cells are shown in FIG. 4.
# [2] = test system: KCMC10 cells derived from patients with Leigh syndrome; experiment: Microarray expression analysis
# Procedure: Expression analysis by a microarray was carried out by use of SurePrint G3 Human Gene Expression 8×60K v3 of Agilent Technologies, Inc. To KCMC10 cells derived from patients with Leigh syndrome, BSO was added, to prepare a group of patients provided with oxidative stress. To the cells, BSO and each of the candidate pharmaceutical agents selected from the drug library were both added to prepare another group. In this manner, two samples per each group were prepared. RNA was extracted from each of the samples and subjected to expression analysis by a microarray.
# In the tables, the value of Log 2 ratio between the two groups of 1 means that expression ratios differ twice, the value of Log 2 ratio of 2 means 4 times difference and the value of Log 2 ratio of 3 means 8 times difference.
# [3] = stated as known; cited from earlier work
# [4] = test system: ME54 cells derived from a patient with Leigh syndrome; experiment: Oxidative stress test (BSO-induced cell death), ME54 cells; format: cell-based, human; settings: BSO plus agent 1 μM, 48 hours after addition
# Excerpt: as §1, §2, §3
# ME110 cells = experiment: Evaluation test for mitochondrial function (extracellular flux analyzer, OCR), ME110 cells; format: cell-based, human; settings: 10 nM, 24 hours after addition, vs DMSO control
# Procedure: (§4) An evaluation test for mitochondrial function including ATP production (capacity) was carried out by using an extracellular flux analyzer (XFe96, Primetech Corporation). Mitochondrial function can be evaluated by continuously measuring the oxygen consumption rate (OCR) of mitochondria during ATP synthesis by use of the extracellular flux analyzer while adding ATP synthase inhibitors (oligomycin, rotenone and antimycin A) and an uncoupler (carbonyl cyanide-p-trifluoromethoxy phenylhydrazone (FCCP)). The evaluation items to be analyzed were basal respiratory volume, ATP production (capacity) and maximum respiratory volume, which are major indexes for evaluating mitochondrial function. The test procedure is as follows. The cells to be used in the test were seeded in a 96-well plate for cell culture so as to satisfy a concentration of 20,000 cells/well and 80 μL medium/well and cultured in a CO2 incubator (37° C., 5% CO2) for 24 hours. Twenty four hours after the culture, each of the pharmaceutical agents (final concentration of 1,000, 100 or 10 nM) of the drug library or the same amount of dimethyl sulfoxide (DMSO) as a control was added to the cells within wells. Twenty minutes after the addition of the pharmaceutical agent, oligomycin (final concentration of 2 μM) was added. Fifty minutes after the addition of the pharmaceutical agent, FCCP (final concentration of 2 μM) was added. Eighty minutes after the addition of the pharmaceutical agent, rotenone and antimycin A (final concentration of 0.5 μM) were sequentially added. The oxygen consumption rate (OCR) was measured with time. Based on the measurement results 24 hours after the addition of the pharmaceutical agents of the drug library, basal respiratory volume, ATP production (capacity) and maximum respiratory volume were evaluated.
# (§5) Reference symbols of ** and ***, which represent p values relative to the control (DMSO) calculated by Student's t-test, show […], respectively.
# KCMC10 cells = experiment: Evaluation test for mitochondrial function (extracellular flux analyzer, OCR), KCMC10 cells; format: cell-based, human; settings: 10 to 100 nM, 24 hours after addition, vs DMSO control
# Procedure: as §4, §5
# [5] = test system: ME110 cells derived from a patient with MELAS; experiment: Oxidative stress test (BSO-induced cell death), ME110 cells; format: cell-based, human; settings: BSO plus agent 1 μM, 48 hours after addition
# Excerpt: as §1, §2, §3
# [6] = test system: Promo 1 cells as normal cells; experiment: Tolerance to oxidative stress by BSO, Promo1 normal cells; format: cell-based, human; settings: Promo 1 normal cells; concentration range of 1 to 1000 μM
# Procedure: as §2, with “concentration. […]” for “concentration.”
# [7] = test system: ME54 cells derived from a patient with Leigh syndrome; experiment: Tolerance to oxidative stress by BSO, ME54 cells; format: cell-based, human
# Procedure: as §2, with “concentration. […]” for “concentration.”
# [8] = KCMC10, BSO/agent vs BSO, Inflammatory cytokine
# [9] = KCMC10, BSO/agent vs BSO, JAK-STAT signal pathway
# [10] = KCMC10, BSO/agent vs BSO, Lymphocytic tissue homing receptor
# [11] = KCMC10, BSO/agent vs BSO, MARK signal pathway
# [12] = KCMC10, BSO/agent vs BSO, Proinflammatory effect
# [13] = KCMC10, BSO/agent vs BSO, Table 4
# [14] = KCMC10, BSO/agent vs BSO, WNT signal pathway
# [15] = KCMC10, BSO/agent vs BSO, mTOR signal pathway
# [16] = KCMC10 cells, BSO/agent addition group vs BSO addition group
smiles,measurement,setting,value
"CN1CCc2cccc3c2[C@H]1Cc1ccc(O)c(O)c1-3 [Pharmaceutical agent No. 5, R(−)-Apomorphine hydrochloride hemihydrate]",survival rate equal to or more than that of idebenone (determined to be effective),[1],effective
same,"Expression change (Increase/Decrease), CCL3",[2]; [8],Decrease
same,"Expression change (Increase/Decrease), IL24",[2]; [8],Decrease
same,"Expression change (Increase/Decrease), LIF",[2]; [8],Decrease
same,"Log 2 ratio between two groups, CCL3",[2]; [8],−2.98
same,"Log 2 ratio between two groups, IL24",[2]; [8],−1.77
same,"Log 2 ratio between two groups, LIF",[2]; [8],−3.32
same,"Expression change (Increase/Decrease), BCL2A1",[2]; [9],Decrease
same,"Expression change (Increase/Decrease), FHL1",[2]; [9],Increase
same,"Expression change (Increase/Decrease), IL13RA2",[2]; [9],Decrease
same,"Expression change (Increase/Decrease), SOCS2",[2]; [9],Increase
same,"Expression change (Increase/Decrease), SOSC1",[2]; [9],Decrease
same,"Log 2 ratio between two groups, BCL2A1",[2]; [9],−3.90
same,"Log 2 ratio between two groups, FHL1",[2]; [9],1.01
same,"Log 2 ratio between two groups, IL13RA2",[2]; [9],−1.63
same,"Log 2 ratio between two groups, SOCS2",[2]; [9],1.30
same,"Log 2 ratio between two groups, SOSC1",[2]; [9],−1.21
same,"Expression change (Increase/Decrease), CCL19",[2]; [10],Decrease
same,"Log 2 ratio between two groups, CCL19",[2]; [10],−4.92
same,"Expression change (Increase/Decrease), DUSP6",[2]; [11],Decrease
same,"Log 2 ratio between two groups, DUSP6",[2]; [11],−3.25
same,"Expression change (Increase/Decrease), IL12A",[2]; [12],Decrease
same,"Log 2 ratio between two groups, IL12A",[2]; [12],−2.71
same,"Expression change (Increase/Decrease), CCL7",[2]; [13],Decrease
same,"Expression change (Increase/Decrease), CSF3",[2]; [13],Decrease
same,"Expression change (Increase/Decrease), CXCL2",[2]; [13],Decrease
same,"Expression change (Increase/Decrease), CXCL3",[2]; [13],Decrease
same,"Expression change (Increase/Decrease), CXCL8",[2]; [13],Decrease
same,"Expression change (Increase/Decrease), MMP1",[2]; [13],Decrease
same,"Log 2 ratio between two groups, CCL7",[2]; [13],−2.41
same,"Log 2 ratio between two groups, CSF3",[2]; [13],−5.58
same,"Log 2 ratio between two groups, CXCL2",[2]; [13],−2.68
same,"Log 2 ratio between two groups, CXCL3",[2]; [13],−3.72
same,"Log 2 ratio between two groups, CXCL8",[2]; [13],−4.34
same,"Log 2 ratio between two groups, MMP1",[2]; [13],−1.40
same,"Expression change (Increase/Decrease), DKK4",[2]; [14],Increase
same,"Expression change (Increase/Decrease), FZD8",[2]; [14],Decrease
same,"Expression change (Increase/Decrease), GBP",[2]; [14],Increase
same,"Expression change (Increase/Decrease), LEF1",[2]; [14],Decrease
same,"Expression change (Increase/Decrease), SOST",[2]; [14],Increase
same,"Log 2 ratio between two groups, DKK4",[2]; [14],1.66
same,"Log 2 ratio between two groups, FZD8",[2]; [14],−1.51
same,"Log 2 ratio between two groups, GBP",[2]; [14],2.11
same,"Log 2 ratio between two groups, LEF1",[2]; [14],−1.23
same,"Log 2 ratio between two groups, SOST",[2]; [14],1.70
same,"Expression change (Increase/Decrease), CAB39L",[2]; [15],Decrease
same,"Expression change (Increase/Decrease), DEPTOR",[2]; [15],Increase
same,"Expression change (Increase/Decrease), FECN",[2]; [15],Decrease
same,"Expression change (Increase/Decrease), PRR5",[2]; [15],Increase
same,"Expression change (Increase/Decrease), RNF152",[2]; [15],Decrease
same,"Expression change (Increase/Decrease), RPS6KA1",[2]; [15],Decrease
same,"Expression change (Increase/Decrease), RRAGD",[2]; [15],Decrease
same,"Expression change (Increase/Decrease), SESN2",[2]; [15],Increase
same,"Log 2 ratio between two groups, CAB39L",[2]; [15],−1.37
same,"Log 2 ratio between two groups, DEPTOR",[2]; [15],2.11
same,"Log 2 ratio between two groups, FECN",[2]; [15],−1.61
same,"Log 2 ratio between two groups, PRR5",[2]; [15],4.19
same,"Log 2 ratio between two groups, RNF152",[2]; [15],−1.61
same,"Log 2 ratio between two groups, RPS6KA1",[2]; [15],−1.22
same,"Log 2 ratio between two groups, RRAGD",[2]; [15],−2.27
same,"Log 2 ratio between two groups, SESN2",[2]; [15],1.41
same,number of genes showing a significant change in expression (expression ratio differs twice or more),[2]; [16],475 types of genes
same,overall expression change of genes of the WNT-mTOR signal pathway (Table 3),[2]; [16],changed toward suppressing the WNT-mTOR signal pathway
same,overall expression change of genes related to cytokines or chemokines involved in inflammation or natural immunity (Table 4),[2]; [16],changed toward suppressing expression of the cytokines or chemokines
same,ability to pass through the blood-brain barrier,[3],known to be able to pass through the blood-brain barrier
same,survival rate equal to or more than that of idebenone (determined to be effective),[4],effective
same,ATP production (capacity),ME110 cells,significantly improved
same,basal respiratory volume,ME110 cells,significantly improved
same,maximum respiratory volume,ME110 cells,significantly improved
same,ATP production (capacity),KCMC10 cells,significantly improved
same,basal respiratory volume,KCMC10 cells,significantly improved
same,maximum respiratory volume,KCMC10 cells,significantly improved
same,survival rate equal to or more than that of idebenone (determined to be effective),[5],effective
"CCCCS(=N)(=O)CCC(N)C(=O)O [BSO, L-buthionine-(S,R)-sulfoximine]",difference in survival rates,[6],no significant difference
same,concentration at which the survival rate significantly decreased,[7],≥ 50 µM
